Laboratory results taken from patent publication US11198705B2, “Hybrid Amphotericin B derivatives with reduced toxicity” (priority 2018, dated 2021).
Converted amounts (≈) assume the structure as drawn. Read-outs that look alike come from different tables or passages of the source.

Columns and labels:
[1] = system: panel of clinical isolates; assay: In vitro antifungal activity, panel of clinical isolates (FIG. 11B); format: cell-based; details: read-out: Mean MIC
From the text: Burke, Andes, and Lindquist reported in 2015 a series of AmB derivatives in which the C16 acid is replaced with a urea motif via a scalable 3-step synthesis from AmB (FIG. 11A). Davis, S. A., et al., Nat Chem Biol 2015, 11 (7), 481-7. AmBUreas were studied at REVOLUTION Medicines, a biotech company for which Burke is a Founder and Consultant and Steinbach served on the Clinical Advisory Board.
(§1) Both AmBAU and AmBTACBU was further tested and compared to AmB against four strains of clinically relevant Candida species and four challenging strains of A. fumigatus (FIG. 11D).

invasive candidiasis = assay: Murine model of invasive candidiasis, intraperitoneal AmBUreas (FIG. 12); format: in vivo, mice
Description: (§2) To enable a head-to-head comparison with the AmB urea derivatives, AmB was delivered as a non-deoxycholate complex. […] These AmBUreas were also tested via intravenous administration in a similar model at EvoTec (Oxfordshire, UK), and their activities were compared directly with IV AmB-deoxycholate (Fungizone®) and liposomal AmB (AmBisome®) (FIG. 13).

[2] = system: four strains of clinically relevant Candida species and four challenging strains of A. fumigatus; assay: In vitro antifungal activity, four Candida strains and four A. fumigatus strains (FIG. 11D); format: cell-based; details: Aspergillus fumigatus, read-out: Mean MIC
From the text: as §1

[3] = format: binding; details: for binding to ergosterol: UV-Vis/PCA sponge-sterol titration
From the text: (§3) However, an alternative method was developed for reproducible formation of homogenous AmB and C2′epiAmB sterol sponge aggregates in vitro. Using these preparations, a quantitative UV-Vis and Principle Component (PCA) based assay for determining the apparent KDS for the binding of AmB and C2′epiAmB to ergosterol and cholesterol (FIGS. 5A-D) was developed.
(§4) Biophysical studies support the conclusion that different capacities to bind cholesterol underlie these striking differences in toxicity for the AmBUreas versus C2′epiAmB (FIG. 15). Isothermal titration calorimetry is unable to distinguish between cholesterol binding in these two series. However, a more sensitive and quantitative UV-Vis/PCA based sponge-sterol titration experiments described above (see Example 1) was employed to quantify the binding of a representative AmB urea (AmBAU) to ergosterol and cholesterol. […] It was reasoned that the lack of cholesterol binding in C2′epiAmB to a ligand-selective allosteric effect was caused by epimerization of the C2′stereocenter (see Example 1), and thus predict that the biophysical effects associated with C2′-epimerization should be transposable to other AmB derivatives.

[4] = system: primary human renal epithelial cells (hREC)
From the text: As a complementary parallel first step in the screening funnel, the MTC's of all new derivatives will be evaluated against hREC using a WST-8 cell proliferation assay kit as previously described above. The MTC will be determined by calculating the mean of at least two biological replicates.

C. albicans [5] = assay: MIC against C. albicans with and without pre-complexation with ergosterol; format: cell-based; details: sponge pre-complexed with ergosterol
From the text: Anderson, T. M. et al., Nat Chem Biol 2014, 10 (5), 400-6. […] Davis, S. A., et al., Nat Chem Biol 2015, 11 (7), 481-7. To test whether C2′epiAmB primarily kills cells via the same sterol sponge mechanism, the C2′epiAmB sponge was similarly pre-complexed with ergosterol (FIG. 9). […] Thus, C2′epiAmB similarly kills yeast primarily via sterol binding, and, by extension, the new compounds targeted in this application are expected to have a similar barrier to fungal resistance that has been observed for the past 50+ years with AmB.

[6] = system: A. fumigatus 91, A. fumigatus 1100; assay: MIC against A. fumigatus 91 and A. fumigatus 1100; format: cell-based
From the text: The results with C2′epiAmBAU strongly support the prediction that C16 modifications will show improved potency compared to C2′epiAmB. […] Thus, it is expected that hybridizations of C2′epiAmB with other urea side chains will yield similar increases in potency without any mammalian toxicity. If this proves not to be the case, other classes of C16 modifications that also increase potency will be pursed. […] Alternative modifications may be pursed at the mycosamine appendage that the modelling predicts should similarly eliminate the water-bridged C2′OH to C13OH hydrogen bond, e.g., C2′deoxygenation, C2′-halodeoxygenation, or C2′-methyldeoxygenation, and thus eliminate cholesterol binding (see FIGS. 3A and 3B). This study anticipates high doses of non-toxic C2′epiAmBUreas will yield a significant reduction in fungal burden and therefore an increase in survival in QD dosing efficacy studies relative to AmB-deoxycholate (Fungizone®), AmBisome®, C2′epiAmB, voriconazole, and caspofungin.

[7] = IV toxicity in rats (BUN, ALT/AST, mortality)
[8] = UV-Vis/PCA sterol sponge titration, cholesterol; format: binding
From the text: as §3, §4

[9] = Isothermal titration calorimetry (ITC) sterol binding, cholesterol; details: within detection limits of ITC
From the text: (§5) This key discovery opened a path to the rational development of a non-toxic AmB variant. To probe its predicted role in sterol binding, the hydroxyl group was synthetically deleted at the C2′ position on the mycosamine appendage. […] Consistent with the sterol sponge model, this derivative retained good activity against yeast but, most importantly, was nontoxic to human red blood cells and primary (hREC) (FIG. 2B).
(§6) A practical 11-step synthesis of C2′epiAmB using a frontier site-selective acylation method was developed (FIG. 4). Wilcock, B. C. et al., Nat Chem 2012, 4 (12), 996-1003; Uno, B. E. A synthesis enabled understanding of Amphotericin B leading to derivatives with improved therapeutic indices. University of Illinois at Urbana-Champaign, 2014. The sterol binding and cell killing activities was then determined.

[10] = Isothermal titration calorimetry (ITC) sterol binding, ergosterol; details: within detection limits of ITC
From the text: as §5, §6

human red blood cells = format: cell-based
yeast = assay: Activity against yeast / cell killing (FIG. 2); format: cell-based
From the text: as §5, §6

candidiasis = assay: Candidiasis mouse model, intravenous administration (EvoTec, FIG. 13); format: in vivo, mice
Description: as §2

[11] = PK/PD properties in mice, rats and dogs (FIG. 14); format: in vivo; details: rats, dogs
Scedosporium prolificans = assay: In vitro antifungal activity against Scedosporium prolificans; format: cell-based; details: recalcitrant strain
From the text: (§7) Steinbach and Burke recently collaborated to further compare the activity of a series of AmBUreas (AmBAU, AmBMU, and AmBCU) with AmBisome®, C2′epiAmB, caspofungin, and voriconazole against a wide range of clinically relevant pathogens, including AmB-resistant Scedosporium strains (FIG. 11C).

[12] = system: wide range of clinically relevant pathogens; assay: In vitro antifungal activity, wide range of clinically relevant pathogens (FIG. 11C); format: cell-based; details: across a wide range of pathogens
From the text: as §7

[13] = IV toxicity in mice (mortality); format: in vivo
[14] = system: series of important pathogens (Candida and Aspergillus strains); assay: In vitro antifungal activity of C2′epiAmBAU hybrid vs AmB, C2′epiAmB and AmBAU (FIG. 18); format: cell-based; details: A. fumigatus 91, A. fumigatus 1163, and A. fumigatus 1100
From the text: In a key result, synthesis on small scale was accomplished on the first targeted hybrid derivative, C2′epiAmBAU, as per FIG. 17 confirming the feasibility of the route to these natural product analogs. The initial biological analysis of this first C2′epiAmBUrea derivative was very encouraging since a substantial increase in antifungal potency for C2′epiAmBAU relative to C2′epiAmB was observed (FIG. 18).

C. albicans [15] = assay: Murine model of invasive candidiasis, single IP injection (FIG. 10); format: in vivo, neutropenic ICR/Swiss mice
From the text: Andes, D. et al., Antimicrobial agents and chemotherapy 2001, 45 (3), 922-6. […] Wiederhold, N. P. et al., Antimicrobial agents and chemotherapy 2006, 50 (2), 469-73.

A. fumigatus = assay: In vitro antifungal activity, A. fumigatus strains (Evotec); format: cell-based
[16] = system: clinically relevant invasive molds; assay: In vitro antifungal activity, panel of clinically relevant invasive molds (FIG. 8C); format: cell-based; details: many strains, including pan-azole resistant strain F14196
[17] = system: Candida and Aspergillus clinical isolates; assay: In vitro antifungal activity, Candida and Aspergillus clinical isolates (Evotec); format: cell-based; details: many Candida and several Aspergillus strains
[18] = system: 40 Aspergillus clinical isolates, including azole-resistant A. fumigatus, A. flavus, and A. terreus; assay: Antifungal testing, extended panel of 40 Aspergillus clinical isolates (Fungus Testing Laboratory, UT-San Antonio); format: cell-based

SMILES: C[C@@H]1[C@H](O)[C@@H](C)/C=C/C=C/C=C/C=C/C=C/C=C/C=C/[C@H](O[C@@H]2O[C@H](C)[C@@H](O)[C@H](N)[C@@H]2O)C[C@@H]2O[C@](O)(C[C@@H](O)C[C@@H](O)[C@H](O)CC[C@@H](O)C[C@@H](O)CC(=O)O[C@H]1C)C[C@H](O)[C@H]2C(=O)O [AmB, Amphotericin B]
- MIC [1]: 1.23 µM (≈ 1.14 µg/mL)
- dose-response (invasive candidiasis; AmB delivered as a non-deoxycholate complex): atypical lack of dose-response
- MIC [2]: 1.33 µM (≈ 1.23 µg/mL)
- Kd [3]: 120 nM
- minimum toxic concentration (MTC) against primary hRECs ([4]; human): 2.4 µM
- minimum toxic concentration (MTC) in hREC, preliminary analysis ([4]; human): 2 to 4 µM
- change in potency upon ergosterol pre-complexation (C. albicans [5]): same reduction in potency

SMILES: COC(=O)C1C(O)CC2(O)CC(O)CC(O)C(O)CCC(O)CC(O)CC(=O)OC(C)C(C)C(O)C(C)C=CC=CC=CC=CC=CC=CC=CC(OC3OC(C)C(O)C(N)C3O)CC1O2 (stereo not drawn) [C2′epiAmBME, C2′epiAmB C16 methyl ester]
- MIC ([6]; A. fumigatus 91): 4 µM (≈ 3.75 µg/mL)
- MIC ([6]; A. fumigatus 1100): 4 µM (≈ 3.75 µg/mL)

SMILES: CNC(=O)N[C@H]1[C@@H]2CC(OC3O[C@H](C)[C@@H](O)[C@H](N)[C@@H]3O)/C=C/C=C/C=C/C=C/C=C/C=C/C=C/[C@H](C)[C@@H](O)[C@@H](C)[C@H](C)OC(=O)C[C@H](O)C[C@H](O)CC[C@@H](O)[C@H](O)C[C@H](O)C[C@](O)(C[C@@H]1O)O2 (stereo partly drawn) [AmBMU]
- toxicity in rats ([7]; 6 mg/kg): significant toxicity
- binding to cholesterol [8]: retains the capacity to bind cholesterol
- minimum toxic concentration (MTC) against primary hRECs ([4]; human): 44.4 µM

SMILES: CC1C=CC=CC=CC=CC=CC=CC=CC(OC2CC(N)C(O)C(C)O2)CC2OC(O)(CC(O)CC(O)C(O)CCC(O)CC(O)CC(=O)OC(C)C(C)C1O)CC(O)C2C(=O)O (stereo not drawn) [C2′deOAmB, reference compound]
- binding of cholesterol by ITC [9]: not cholesterol
- binding of ergosterol by ITC [10]: bind ergosterol
- toxicity to human red blood cells (human red blood cells): nontoxic
- toxicity to primary hREC [4]: nontoxic
- activity against yeast (yeast): good activity

SMILES: C[C@@H]1[C@H](O)[C@@H](C)/C=C/C=C/C=C/C=C/C=C/C=C/C=C/C(OC2O[C@H](C)[C@@H](O)[C@H](N)[C@@H]2O)C[C@@H]2O[C@](O)(C[C@@H](O)C[C@@H](O)[C@H](O)CC[C@@H](O)C[C@@H](O)CC(=O)O[C@H]1C)C[C@H](O)[C@H]2NC(=O)NCCN (stereo partly drawn) [AmBAU]
- kidney fungal burden (candidiasis; 1 mg/kg, within the limits of assay detection): sterilization in multiple mice
- kidney fungal burden (candidiasis; 16 mg/kg): complete sterilization
- PK/PD properties [11]: favorable PK/PD properties
- concentration failing to fully lyse red blood cells (human red blood cells; highest concentrations tested): > 500 µM
- efficacy (invasive candidiasis; administered intraperitoneally): exceptionally effective
- activity against Scedosporium prolificans (Scedosporium prolificans): active
- antifungal potency [12]: excellent potency
- dose at which death was observed ([13]; IV, mice): 32 mg/kg
- toxicity in rats ([7]; 6 mg/kg): significant toxicity
- binding to cholesterol [8]: confirmed to bind
- MIC ([2]; FIG. 11D, four Candida and four A. fumigatus strains): 0.5 µM (≈ 0.491 µg/mL)
- binding to ergosterol [3]: confirmed to bind
- minimum toxic concentration (MTC) against primary hRECs [4]: 11.3 µM

SMILES: C[C@@H]1[C@H](O)[C@@H](C)/C=C/C=C/C=C/C=C/C=C/C=C/C=C/[C@H](O[C@@H]2O[C@H](C)[C@@H](O)[C@H](N)[C@H]2O)C[C@@H]2O[C@](O)(C[C@@H](O)C[C@@H](O)[C@H](O)CC[C@@H](O)C[C@@H](O)CC(=O)O[C@H]1C)C[C@H](O)[C@H]2C(=O)O [C2′epiAmB]
- resistance of strains to compound [14]: complete or nearly complete resistance
- MIC ([6]; A. fumigatus 91): > 64 µM
- MIC ([6]; A. fumigatus 1100): 32 µM (≈ 29.6 µg/mL)
- fungal burden (C. albicans [15]; 16 mg/kg): outstanding reductions in fungal burden
- efficacy (C. albicans [15]; deoxycholate complex, 1, 4, 8, or 16 mg/kg): dose-dependent efficacy
- binding of cholesterol by ITC [9]: not (detectably) cholesterol
- binding of ergosterol by ITC [10]: bind ergosterol
- potency relative to AmB (less potent) (A. fumigatus; A. fumigatus AF91): > 32 times
- potency relative to AmB (less potent) (A. fumigatus; A. fumigatus AF293, A1163, and ATC204305): 4 fold
- toxicity to human red blood cells (human red blood cells): non-toxic
- antifungal potency [16]: good antifungal potency
- in vitro antifungal activity [17]: good activity
- average potency relative to AmB (less potent) ([18]; average across all 40 strains): 5.6 fold
- potency relative to AmB (less potent) ([18]; range over 40 Aspergillus clinical isolates): 2-16 times
- mortality ([13]; IV, mice, 128 mg/kg (highest dose tested)): survived
- toxicity to mice ([13]; up to the highest dose tested): non-toxic
- toxicity in rats ([7]; 17.5 mg/kg (highest tested dose)): no such toxicity
- toxicity to rats ([7]; up to the highest dose tested): non-toxic
- binding to cholesterol [8]: no detectable binding
- binding to ergosterol [3]: retained binding
- minimum toxic concentration (MTC) against primary hRECs [4]: > 80 µM
- toxicity to primary hREC [4]: non-toxic
- change in potency upon ergosterol pre-complexation (C. albicans [5]): same reduction in potency
- cell killing activities (yeast; fungal vs human cells): kill fungal but not human cells
